Test results taken from patent US20250207103A1, “CYTOCOMPATIBLE HYDROGELS AND METHODS OF MAKING AND USING THE SAME” (The Trustees of Indiana University, priority 2022, published 2025).

Legend:
PCCs/CAFs = test: effect of blebbistatin and Y-27632 on PCCs/CAFs encapsulated in viscoelastic hydrogels; format: cell-based, human; settings: blebbistatin: 40 μM, Y-27632: 10 μM, Day 15
Source text: To facilitate imaging, pancreatic cancer cells COLO-357 were stably transduced with mKate2, a red fluorescent protein (RFP), using INCUCYTE® Cytolight Lentivirus reagent, followed by puromycin selection. green fluorescent protein (GFP)-labelled human pancreatic cancer associated fibroblasts (1303-GFP-49-hT, or CAF) and RFP-labelled COLO-357 (PCC) were maintained in high glucose Dulbecco's modified eagle medium (DMEM, Gibco) containing 10% Fetal bovine serum (FBS, Corning) and 1% antibiotic-antimycotic (Gibco) at 37° C. with 5% CO2. Cells were trypsinized by 0.1% trypsin-ethylenediaminetetraacetic acid (trypsin-EDTA) (Gibco) for cell encapsulation. The cell density of CAF and PCC was kept at 1.6 million/mL (M/mL) and 400 thousand/mL (k/mL), respectively, in both single-encapsulated and co-encapsulated precursor solutions. The hydrogel precursor solution was similar to the aforementioned formulations, except that 3 wt % of GelSH was included to facilitate cell proliferation. Twenty-five μL precursor solution was cured under UV light (λ=365 nm, 5 mW/cm^2) in an opened 1 mL syringe for 2 minutes. […]
The cell viability of CAF in hydrogels was evaluated by staining with ethidium homodimer 3. The morphology of CAF in hydrogels was analyzed using F-actin (rhodamine phalloidin 100 nM, Cytoskeleton) and 4′,6-diamidino-2-phenylindole (DAPI) (1:1000, Anaspec) stained images. […]

CAFs = test: effect of blebbistatin and Y-27632 on spreading of CAFs in viscoelastic hydrogels; format: cell-based, human; settings: Y-27632: 10 μM; for F-actin polymerization in CAFs: blebbistatin: 40 μM, Day 15
Source text: To facilitate imaging, pancreatic cancer cells COLO-357 were stably transduced with mKate2, a red fluorescent protein (RFP), using INCUCYTE® Cytolight Lentivirus reagent, followed by puromycin selection. green fluorescent protein (GFP)-labelled human pancreatic cancer associated fibroblasts (1303-GFP-49-hT, or CAF) and RFP-labelled COLO-357 (PCC) were maintained in high glucose Dulbecco's modified eagle medium (DMEM, Gibco) containing 10% Fetal bovine serum (FBS, Corning) and 1% antibiotic-antimycotic (Gibco) at 37° C. with 5% CO2. Cells were trypsinized by 0.1% trypsin-ethylenediaminetetraacetic acid (trypsin-EDTA) (Gibco) for cell encapsulation. The cell density of CAF and PCC was kept at 1.6 million/mL (M/mL) and 400 thousand/mL (k/mL), respectively, in both single-encapsulated and co-encapsulated precursor solutions. The hydrogel precursor solution was similar to the aforementioned formulations, except that 3 wt % of GelSH was included to facilitate cell proliferation. Twenty-five μL precursor solution was cured under UV light (λ=365 nm, 5 mW/cm^2) in an opened 1 mL syringe for 2 minutes. The cell-laden hydrogels were then cultured in regular cell culture media. For hydrogels treated with myosin inhibitor blebbistatin (40 μM, Peprotech) and ROCK inhibitor Y-27632 (10 μM, AdipoGen), the treated culture media was replaced daily to ensure the efficacy of inhibitors.
The cell viability of CAF in hydrogels was evaluated by staining with ethidium homodimer 3. The morphology of CAF in hydrogels was analyzed using F-actin (rhodamine phalloidin 100 nM, Cytoskeleton) and 4′,6-diamidino-2-phenylindole (DAPI) (1:1000, Anaspec) stained images. In the co-encapsulated hydrogels, cells were stained using F-actin (Actin stain 670 phalloidin 200 nM, Cytoskeleton) and DAPI (1:1000). The confocal images (Olympus Fluoview FV100 laser scanning microscope) were z-stacked from 5 μm slices over 100 μm in total.

SMILES	invasive phenotype of PCC cells in co-culture (PCCs/CAFs)	cell morphology of CAFs (CAFs)	F-actin polymerization in CAFs (CAFs)
C[C@@H](N)[C@H]1CC[C@H](C(=O)Nc2ccncc2)CC1 [Y-27632]	neither the addition of blebbistatin nor Y-27632 altered invasive phenotype	more obvious dendritic extensions of cells	disrupted F-actin polymerization
Cc1ccc2c(c1)C(=O)C1(O)CCN(c3ccccc3)C1=N2 (centres unmarked) [blebbistatin]	neither the addition of blebbistatin nor Y-27632 altered invasive phenotype		disrupted F-actin polymerization
